The values that follow come from PubChem BioAssay (NCI).

Each structure is given as a SMILES string.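 Step 1: Grow cells in 96-well plates. Step 2: Expose to compound for 48 hours at 5 concentrations. Step 3: Interpolate endpoints linearly; if unreached, use highest concentration. TGI is the concentration that stops growth completely.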

Test systems include CAKI-1 renal; K-562 leukemia; UACC-257 melanoma; HOP-18 NSCLC; LXFL 529 NSCLC; M19-MEL melanoma; DLD-1 colon; DMS 114 small cell lung; DMS 273 small cell lung; KM20L2 colon; SNB-78 CNS; XF 498 CNS; RXF-631 renal.
Experiment in all cases: NCI-60 cell line screen, 48 h

`O=[N+]([O-])C(/C(Cl)=C(/Cl)N1CCOCC1)=C1\Nc2ccccc2O1`: the TGI in the assay with CAKI-1 renal, in the assay on K-562 leukemia and in the assay with UACC-257 melanoma was over 100 µM throughout.

For `CCO/C(O)=c1/s/c(=C2/SC(=S)N(c3ccc(C)cc3)C2=O)n(-c2ccccc2)c1=N`, the TGI with HOP-18 NSCLC, in the assay on K-562 leukemia, in the assay on LXFL 529 NSCLC, with M19-MEL melanoma and with UACC-257 melanoma was over 100 µM each time.

On to `CN(C(=O)Cc1cc(Cl)c(Cl)cc1NC(=O)CCCN)[C@H]1CCCC[C@@H]1N1CCCC1`, for which the TGI in the assay on CAKI-1 renal was over 100 µM; with K-562 leukemia, over 100 µM; in the assay with UACC-257 melanoma, 33.3 µM.

On to `Cc1cc2c3c(c1)S(=O)(=O)c1cc(Cl)ccc1N3CCC2`, for which the TGI in the assay on CAKI-1 renal, in the assay with K-562 leukemia and in the assay with UACC-257 melanoma was over 100 µM in each case.

Regarding `CCOC(=O)CCCN`, the TGI in the assay with CAKI-1 renal, in the assay with K-562 leukemia and in the assay on UACC-257 melanoma was over 100 µM each time.

Regarding `O=C1C(NS(=O)(=O)c2ccccc2)=C(n2ccnc2)C(=O)c2ccccc21`, the TGI in the assay with CAKI-1 renal, with K-562 leukemia and in the assay on UACC-257 melanoma was over 100 µM in each case.

For `CN(C)c1ccc(-c2c(C#N)c(-c3ccccc3)n(NS(=O)(=O)c3ccccc3)c(=O)c2C#N)cc1`, the TGI in the assay on CAKI-1 renal, in the assay with K-562 leukemia and in the assay on UACC-257 melanoma was over 100 µM in each case.

Consider `O=c1[nH]c2c(C(F)(F)F)c(Cl)c(-c3ccccc3)nc2o1`, for which the results for the TGI in the assay on CAKI-1 renal, in the assay on K-562 leukemia and in the assay on UACC-257 melanoma were over 100 µM, 84.3 µM and 59.9 µM, respectively.

For the compound `COc1ccc(Nc2nc3ccccc3nc2-c2cccs2)cc1OC`, the TGI with CAKI-1 renal, with K-562 leukemia and in the assay with UACC-257 melanoma was over 10 µM each time.

As to `COc1cc(O)c2c(=O)c3cccc(C)c3[nH]c2c1`, the TGI with CAKI-1 renal, in the assay with K-562 leukemia and in the assay on UACC-257 melanoma was over 10 µM each time.

For the compound `CC1=C[C@H](C[C@]2(C)c3c(c4c(C)cccc4oc3=O)O[C@@H]2C)OC1=O`, the TGI with CAKI-1 renal, with K-562 leukemia and with UACC-257 melanoma was over 100 µM in each case.

`Cc1ccc(N=NC(=Nc2ccc(F)cc2)c2ccc(N(CCC#N)CCC#N)cc2)cc1`: the TGI is over 100 µM in the assay on CAKI-1 renal, over 100 µM with K-562 leukemia and 91.3 µM in the assay with UACC-257 melanoma.

On to `OC1CCN2Cc3ccccc3N=C12` (stereo not drawn), for which the TGI in the assay with CAKI-1 renal, in the assay with K-562 leukemia and with UACC-257 melanoma was over 100 µM in each case.

On to `CCCSc1ccc2[nH]c(N3C(=O)/C(=C/c4ccc(O)c(OC)c4)N=C3c3ccccc3)cc2c1`, for which the TGI in the assay with CAKI-1 renal was over 100 µM; with K-562 leukemia, over 100 µM; in the assay on UACC-257 melanoma, 51.8 µM.

With `CC1(N2CCOCC2)CC2C(=[N+]1[O-])CCC/C2=N/O` (stereo not drawn), the TGI in the assay with CAKI-1 renal, in the assay on K-562 leukemia and in the assay with UACC-257 melanoma was over 100 µM each time.

`c1ccc(C/C(=N\Nc2nc3ccccc3[nH]2)c2ccccn2)cc1`: the TGI in the assay with CAKI-1 renal was 1.52 µM; in the assay on K-562 leukemia, over 100 µM; in the assay on UACC-257 melanoma, 1.54 µM.

On to `CS(=O)(=O)N(CCC#N)c1ccc(/C=C2\N=C(c3ccccc3Cl)OC2=O)cc1`, for which the TGI with CAKI-1 renal, in the assay on DLD-1 colon, in the assay with DMS 114 small cell lung, in the assay on DMS 273 small cell lung, with K-562 leukemia and with KM20L2 colon was over 100 µM each time. Further, the TGI with LXFL 529 NSCLC, in the assay with M19-MEL melanoma, in the assay on SNB-78 CNS, in the assay on UACC-257 melanoma and with XF 498 CNS was over 100 µM in each case.

For `COc1cc2c(c3nc4ccccc4nc13)-c1ccc(SC)c(=O)cc1[C@@H](NC(C)=O)CC2`, the TGI in the assay with CAKI-1 renal, in the assay with K-562 leukemia and in the assay with UACC-257 melanoma was over 100 µM each time.

With `COC(=O)C1=C(C(=O)OC)C23CC4CCC2(C(=O)C1O3)C4(C)C` (stereo not drawn), the TGI in the assay on CAKI-1 renal, in the assay on DLD-1 colon, with HOP-18 NSCLC, in the assay on K-562 leukemia, in the assay on KM20L2 colon and in the assay with LXFL 529 NSCLC was over 100 µM in each case. Further, the TGI in the assay with M19-MEL melanoma, in the assay with UACC-257 melanoma and in the assay with XF 498 CNS was over 100 µM each time.

On to `CCN(CC)c1c(-c2c(OC(C)C)c(=O)c2=O)c(=O)n2ccsc2c1OC(C)=O`, for which the TGI with CAKI-1 renal, in the assay on K-562 leukemia and in the assay on UACC-257 melanoma was over 100 µM each time.

As to `CC(Nc1cccc(Cl)c1)c1ccncc1` (stereo not drawn), the TGI in the assay on CAKI-1 renal, in the assay on K-562 leukemia and in the assay on UACC-257 melanoma was over 100 µM in each case.

As for `CCN(CC)C1=Nc2ccccc2-n2ccnc2C1`, the TGI in the assay on CAKI-1 renal, with K-562 leukemia and in the assay on UACC-257 melanoma was over 100 µM in each case.

Turning to `O=NN(CC1(O)OCC(O)C(O)C1O)C(Cc1c[nH]c2ccccc12)C(=O)O` (stereo not drawn), the TGI in the assay with DLD-1 colon, in the assay with DMS 114 small cell lung, in the assay on DMS 273 small cell lung, with K-562 leukemia, in the assay on KM20L2 colon and in the assay on M19-MEL melanoma was over 100 µM throughout. For the same compound, the TGI with RXF-631 renal, in the assay with SNB-78 CNS, in the assay on UACC-257 melanoma and in the assay with XF 498 CNS was over 100 µM in each case.

Consider `O=C1c2cccnc2S(=O)(=O)N1c1ccc(Br)cc1`, for which the TGI with CAKI-1 renal, in the assay with K-562 leukemia and in the assay with UACC-257 melanoma was over 100 µM in each case.

Turning to `CN(C)CC1CCC/C(=C\c2ccc(Cl)c(Cl)c2)C1=O` (stereo not drawn), the TGI is 7.7 µM with CAKI-1 renal, 5.47 µM in the assay with K-562 leukemia and 21.7 µM in the assay with UACC-257 melanoma.
